# Read-outs that look alike come from different tables or passages of the source.
# Procedure: The experimental results described below were obtained on the basis of a study carried out in healthy human beings and in healthy Wistar rats weighing approximately 250 grams.
# An acclimation period was observed before beginning the experiments.
# The rats received an administration per os of a volume of 5 ml of a solution of active product.
# With regard to taking the blood samples from the rats and from the human beings, the blood was collected in tubes internally coated with EDTA and was then centrifuged at 3000 rpm (revolutions per minute) at ambient temperature for 45 min, and then for 15 min at a temperature of 4° C. The plasma was then collected and stored at −70° C. before analysis.
# The analytical technique (LC-MS/MS for Liquid Chromatography coupled to tandem Mass Spectrometry) for measuring the active substance in the blood was based on the method described by Mata-Bilbao et al., published in 2007 in the Journal of Agricultural and Food Chemistry, volume 55, page 8857.
# The free (+)-catechin was extracted from the plasma with a solution of phosphoric acid, EDTA and ascorbic acid and was then purified by SPE (solid phase extraction); in particular, it is an Oasis™ HLB extraction which is analyzed by LC-MS/MS. The quantification was carried out according to a standard calibration procedure with (+/−)-catechin-2,3,4-^13C3 as internal standard (SI).
# The procedure is identical with regard to the extraction and the quantification of free quercetin or ECGC in the blood.
# With regard to the extraction and quantification of the total (+)-catechin, the procedure is the same as that applied to the free (+)-catechin, with the exception of the fact that an additional step prior to the purification by SPE is carried out.
# Each of the mixtures is then solubilized in water.
# Each of the mixtures is solubilized in water.
structure (smiles),measurement,setting,value
Cl.Cl.Cl.Cl.Cl.NCCCCC(N)C(=O)O.NCCCCC(N)C(=O)O.NCCCCC(N)C(=O)O.NCCCCC(N)C(=O)O.NCCCCC(N)C(=O)O.Oc1cc(O)c2c(c1)O[C@H](c1ccc(O)c(O)c1)[C@@H](O)C2.Oc1cc(O)c2c(c1)O[C@H](c1ccc(O)c(O)c1)[C@@H](O)C2 [1:2.5:2.5],"ct, value reported on the curve in FIG. 5","rat, in vivo, 25 mg/kg",105 k ng min/ml
"Cl.Cl.Cl.NCCCCC(N)C(=O)O.NCCCCC(N)C(=O)O.NCCCCC(N)C(=O)O.Oc1cc(O)c2c(c1)O[C@H](c1ccc(O)c(O)c1)[C@@H](O)C2 [1:3:3, reference compound]","ct, calculated value","rat, in vivo, 25 mg/kg",38 k ng min/ml
"Cl.Cl.Cl.Cl.Cl.NCCCCC(N)C(=O)O.NCCCCC(N)C(=O)O.NCCCCC(N)C(=O)O.NCCCCC(N)C(=O)O.NCCCCC(N)C(=O)O.Oc1cc(O)c2c(c1)O[C@H](c1ccc(O)c(O)c1)[C@@H](O)C2 [1:5:5, reference compound]","ct, calculated value","rat, in vivo, 25 mg/kg",26 k ng min/ml
"O=C(O[C@@H]1Cc2c(O)cc(O)cc2O[C@@H]1c1cc(O)c(O)c(O)c1)c1cc(O)c(O)c(O)c1 [EGCG, epigallocatechin gallate, reference compound]",plasma levels measured (below the reliable limits of detection),"EGCG, rats, per os, dose equivalent to 25 mg/kg polyphenol",below 250 ng/ml
"O=c1c(O)c(-c2ccc(O)c(O)c2)oc2cc(O)cc(O)c12 [QP, quercetin, reference compound]","Δct^q (difference of ct to QP, related back to QP)","Wistar, rat, in vivo, 25 mg/kg",0%
"Cl.Cl.NCCCCC(N)C(=O)O.NCCCCC(N)C(=O)O.O=c1c(O)c(-c2ccc(O)c(O)c2)oc2cc(O)cc(O)c12 [[Q:Lys:HCl/1:2:2], reference compound]","Δct^q (difference of ct to QP, related back to QP)","rat, in vivo, 25 mg/kg",+18%

# Reference: patent publication US9844595B2, “Composition comprising a complex of (+)-catechin and amino acid for the treatment and prevention of cancer” (VALORE, priority 2013, dated 2017)
